The structures appear in SMILES notation.

For this experiment, the target named is T1, Bcl-2 protein (Recombinant Human Bcl-2 Protein) (Homo sapiens, UniProt P10415).
T1 construct: purchased Novus NBP2-34889
Kind of experiment: Binding evaluation of mixture library compounds to Bcl-2 using AS-MS (affinity selection mass spectrometry). The conditions noted are these: for ASMS ratio (%) n = 1 / ASMS ratio (%) n = 2: ASMS Ratio(%)=(A−C)/B×100; for ASMS ratio (%) n = 1: replicate n = 1; for ASMS ratio (%) n = 2: replicate n = 2. In short, it runs like this: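 Bcl-2 binding is scored from LC/MS signal retained with protein through gel-filtration spin columns, normalised to unfiltered and protein-free controls. Incubation: 20 μM protein, […] per compound, 1 h, 23° C.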

Setting [1] is: AS-MS on the mixture of 1200 library compounds.
Where [2] appears, read: AS-MS, mixture of 1200 compounds, Bcl-2.

T1 sequence (P10415 whole entry): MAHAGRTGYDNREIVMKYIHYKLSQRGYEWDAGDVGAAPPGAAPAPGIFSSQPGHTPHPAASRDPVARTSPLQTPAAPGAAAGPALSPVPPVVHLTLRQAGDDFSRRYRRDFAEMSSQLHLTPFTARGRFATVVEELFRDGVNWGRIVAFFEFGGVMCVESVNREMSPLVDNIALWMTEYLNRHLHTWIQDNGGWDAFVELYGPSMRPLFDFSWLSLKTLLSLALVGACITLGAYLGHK

As for `CCOc1cncc(-c2ccc(CN3CCN(c4ccc(C(=O)N(C)CC56CC7CC(CC(C7)C5)C6)nn4)CC3)c3ccccc23)c1` [B3A092-01, N-(1-Adamantylmethyl)-6-[4-[[4-(5-ethoxypyridin-3-yl)naphthalen-1-yl]methyl]piperazin-1-yl]-N-methylpyridazine-3-carboxamide], under setting [1], the “ASMS ratio (%) n = 1” value worked out at 1.1% and the “ASMS ratio (%) n = 2” value is reported as −1.9%.

`CCOc1cncc(-c2ccc(C(=O)N3CCN(c4ccc(C(=O)NCC(F)(F)F)nn4)CC3)cc2C)c1` [B1K004-01, 6-[4-[4-(5-Ethoxypyridin-3-yl)-3-methylbenzoyl]piperazin-1-yl]-N-(2,2,2-trifluoroethyl)pyridazine-3-carboxamide]: under setting [2], the “ASMS ratio (%) n = 1” value was determined as 0.0% and the “ASMS ratio (%) n = 2” value worked out at 0.6%. `CCOc1cccc(-c2ccc(CN3CCN(c4ccc(C(=O)NS(=O)(=O)c5ccc(NCCSc6ccccc6)c([N+](=O)[O-])c5)cc4)CC3)cc2F)c1` [B2Q051-01, 4-[4-[[4-(3-Ethoxyphenyl)-3-fluorophenyl]methyl]piperazin-1-yl]-N-[3-nitro-4-(2-phenylsulfanylethylamino)phenyl]sulfonylbenzamide]: under “AS-MS, mixture library, Bcl-2”, the “ASMS ratio (%) n = 1” value is recorded as 22.6% and the “ASMS ratio (%) n = 2” value amounted to 2.1%. For the molecule `CCOc1cncc(-c2ccc(C(=O)N3CCN(c4ccc(C(=O)N(CC)CC)cc4)CC3)cc2C)c1` [B4J026-01, 4-[4-[4-(5-Ethoxypyridin-3-yl)-3-methylbenzoyl]piperazin-1-yl]-N,N-diethylbenzamide], under setting [1], the “ASMS ratio (%) n = 1” value was −3.6% and the “ASMS ratio (%) n = 2” value is on record as −5.9%. As for `CCOc1cncc(-c2ccc(C(=O)N3CCN(c4ccc(C(=O)NS(=O)(=O)C(C)(C)C)cc4)CC3)c3ccccc23)c1` [B2L036-01, N-tert-Butylsulfonyl-4-[4-[4-(5-ethoxypyridin-3-yl)naphthalene-1-carbonyl]piperazin-1-yl]benzamide], the “ASMS ratio (%)” value is 0.0% (n = 1) and 0.0% (n = 2).

On to `CCOc1cccc(-c2csc(C(=O)N3CCN(c4ccc(C(=O)Nc5ccc(OC)cc5)nn4)CC3)c2)c1` [B1O001-01, 6-[4-[4-(3-Ethoxyphenyl)thiophene-2-carbonyl]piperazin-1-yl]-N-(4-methoxyphenyl)pyridazine-3-carboxamide], for which, under setting [1], the “ASMS ratio (%) n = 1” value is −0.1% and the “ASMS ratio (%) n = 2” value is −3.1%. Turning to `CCOc1cncc(-c2ccccc2CCC(=O)N2CCN(c3ccc(C(=O)NS(=O)(=O)CC45CC6CC(CC(C6)C4)C5)cc3)CC2)c1` [B2A034-01, N-(1-Adamantylmethylsulfonyl)-4-[4-[3-[2-(5-ethoxypyridin-3-yl)phenyl]propanoyl]piperazin-1-yl]benzamide], where the note is “AS-MS, mixture library, Bcl-2”, the “ASMS ratio (%) n = 1” value is reported as 1.6% and the “ASMS ratio (%) n = 2” value came out at 0.3%. `CCOc1cccc(-c2ccc(CN3CCN(c4ccc(C(=O)N(CC)CC)nn4)CC3)cc2F)c1` [B4J077-01, 6-[4-[[4-(3-Ethoxyphenyl)-3-fluorophenyl]methyl]piperazin-1-yl]-N,N-diethylpyridazine-3-carboxamide]: under “AS-MS, mixture library, Bcl-2”, the “ASMS ratio (%) n = 1” value is 1.2% and the “ASMS ratio (%) n = 2” value is listed as −5.5%. In the same order, the values of `CCOc1cccc(-c2csc(C(=O)N3CCN(c4ccc(C(=O)NS(=O)(=O)CC56CC7CC(CC(C7)C5)C6)nn4)CC3)c2)c1` [B2A001-01, N-(1-Adamantylmethylsulfonyl)-6-[4-[4-(3-ethoxyphenyl)thiophene-2-carbonyl]piperazin-1-yl]pyridazine-3-carboxamide] are 0.0% and 0.0%. Consider `CCOc1cccc(-c2csc(CN3CCN(c4ccc(C(=O)NS(=O)(=O)CCC(F)(F)F)nn4)CC3)c2)c1` [B2N093-01, 6-[4-[[4-(3-Ethoxyphenyl)thiophen-2-yl]methyl]piperazin-1-yl]-N-(3,3,3-trifluoropropylsulfonyl)pyridazine-3-carboxamide], for which the “ASMS ratio (%)” value (n = 1) turned out to be 0.0%.
